Consider 10 molecules from ChEMBL document CHEMBL1201862, “PubChem BioAssay data set” (2004).

Test systems include TK-10; Malme-3M; KM12; HCT-15; OVCAR-3; SN12C; OVCAR-8; LOX IMVI; SW-620; M14; SF-295; HL-60; BT-549; SK-OV-3; SF-539; NCI-H522; ACHN; COLO 205; A498; RXF 393.
What all share (assay): NCI tumour cell line growth inhibition, 48 h

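Growth conditions: 96-well plates. Treatment: test compound, 48 hours, 5 concentrations. Analysis: linear interpolation between bracketing concentrations; unreached endpoints set to highest concentration. GI50 is the concentration that inhibits growth by half.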 Active and inactive are the calls of the source. Rule as the data show it: active = GI50 up to about 1.1 µM and inactive = higher.

Consider `COc1cc(C2c3cc4c(cc3OC(N3CCCC3)C2C)OCO4)cc(OC)c1O` (configuration not stated), for which the GI50 with TK-10 is 19.4 µM (inactive); in the test on Malme-3M, 8.09 µM (inactive); with KM12 it was 6.59 µM (inactive); in the test with HCT-15, 14 µM; with OVCAR-3, 13.5 µM (inactive); in the test on SN12C it was 23.4 µM (inactive). Also, the GI50 in the test on OVCAR-8 was 24 µM (inactive); with LOX IMVI, 23 µM (inactive); with SW-620 it was 6.89 µM (inactive); with M14 it was 16 µM (inactive); in the test with SF-295, 3.71 µM (inactive); in the test on HL-60, 4.58 µM (inactive). Further, the GI50 with BT-549 was 13.3 µM (inactive); in the test on SK-OV-3, 11.5 µM (inactive); with SF-539 it was 14.9 µM (inactive); in the test on NCI-H522, 3.61 µM (inactive); with ACHN it was 28.6 µM (inactive); with COLO 205 it was 23.1 µM (inactive). The GI50 in the test on A498 is 21.1 µM (inactive); in the test with RXF 393, 7.46 µM (inactive).

For `c1ccc2c(c1)N[C@@H]1c3[nH]c4ccccc4c3CC[C@H]21`, the GI50 with TK-10 was 37 µM (inactive); in the test on Malme-3M, 5.13 µM (inactive); in the test with KM12, 14 µM (inactive); with HCT-15, 23 µM; with OVCAR-3, 13.9 µM (inactive); in the test on SN12C it was 15.2 µM (inactive). For the same molecule, the GI50 was 12.9 µM (inactive) in the test with OVCAR-8; 16 µM (inactive) with LOX IMVI; 17.7 µM (inactive) with SW-620; 13.5 µM (inactive) with M14; 13.4 µM (inactive) in the test on SF-295; 16.1 µM (inactive) with HL-60. The GI50 with BT-549 was 18.8 µM (inactive); in the test with SK-OV-3, 14.6 µM (inactive); in the test with SF-539, 16.6 µM (inactive); with NCI-H522 it was 11.6 µM (inactive); in the test with ACHN it was 21.4 µM (inactive); with COLO 205, 14.7 µM (inactive). The GI50 is 16.7 µM (inactive) in the test on A498 and 17.9 µM (inactive) with RXF 393.

With `CC(=O)/C(=C/c1ccccc1F)C(=O)c1ccccc1`, the GI50 in the test on TK-10 is 24.4 µM (inactive); in the test with KM12, 30.9 µM (inactive); with HCT-15, 27.7 µM; in the test with OVCAR-3, 18.6 µM (inactive); in the test with SN12C, 37.2 µM (inactive); in the test on OVCAR-8, 21.6 µM (inactive). The GI50 was 17.8 µM (inactive) in the test with LOX IMVI; 20.7 µM (inactive) in the test on SW-620; 56 µM (inactive) with M14; 43.8 µM (inactive) in the test with SF-295; 21.4 µM (inactive) in the test on HL-60; 48.2 µM (inactive) with BT-549. The GI50 in the test with SK-OV-3 was 34.9 µM (inactive); with SF-539, > 100 µM (inactive); with NCI-H522, 26.5 µM (inactive); in the test on ACHN, 35.2 µM (inactive); with COLO 205 it was 60.5 µM (inactive); in the test with A498 it was > 100 µM (inactive). Moreover, the GI50 in the test on RXF 393 was 17.4 µM (inactive).

Consider `COc1ccc(/C=C/C2=NN(c3cccc(S(=O)(=O)O)c3)C3(C2)SCC(=O)N3c2nc3ccccc3s2)cc1` (configuration not stated), for which the GI50 in the test on TK-10 is 86.3 µM (inactive); with Malme-3M it was > 100 µM (inactive); with KM12, > 100 µM (inactive); in the test on HCT-15, 85.9 µM; in the test with SN12C, > 100 µM (inactive); in the test with OVCAR-8, 60.7 µM (inactive). In addition, the GI50 is 33.1 µM (inactive) in the test with LOX IMVI; > 100 µM (inactive) in the test on SW-620; > 100 µM (inactive) with M14; > 100 µM (inactive) in the test with HL-60; 56.1 µM (inactive) with BT-549; 33.2 µM (inactive) in the test with SF-539. For the same molecule, the GI50 with NCI-H522 was 35.2 µM (inactive); in the test on ACHN, 69 µM (inactive); in the test with COLO 205, > 100 µM (inactive); with A498, 57 µM (inactive); in the test on RXF 393, > 100 µM (inactive).

With `COC1CC(O[C@H]2CC[C@@]3(C)[C@@H](CC[C@]4(O)[C@@H]3CC[C@]3(C)[C@@H](C(C)=O)[C@H](OC(=O)CC(C)C)[C@@H](OC(=O)c5ccccc5)[C@@]34O)C2)OC(C)C1OC1CC(OC)C(OC2OC(C)C(O)C(OC)C2O)C(C)O1` (some centres not stated), the GI50 in the test with TK-10 is 18.3 µM (inactive); with Malme-3M it was 18.5 µM (inactive); in the test on KM12, 12.9 µM (inactive); with HCT-15 it was 9.95 µM; in the test with OVCAR-3 it was 11.8 µM (inactive); in the test with SN12C, > 25 µM (inactive). For the same molecule, the GI50 in the test with OVCAR-8 was 20 µM (inactive); in the test with LOX IMVI, 15.9 µM (inactive); in the test on SW-620 it was > 25 µM (inactive); in the test with M14, 16.1 µM (inactive); in the test with SF-295 it was 16.9 µM (inactive); with HL-60 it was 7.19 µM (inactive). Moreover, the GI50 is > 25 µM (inactive) in the test with BT-549; > 25 µM (inactive) in the test with SK-OV-3; > 25 µM (inactive) in the test with SF-539; 13.1 µM (inactive) with NCI-H522; 24.4 µM (inactive) with ACHN; 5.13 µM (inactive) in the test on COLO 205. Further, the GI50 in the test on A498 and in the test on RXF 393 was > 25 µM (inactive) each time.

For the molecule `Cc1cccc(C(C)(C)C)c1NC(=O)C(C#N)C1=C(Cl)C(=O)c2ccccc2C1=O` (configuration not stated), the GI50 in the test on TK-10 was 19.1 µM (inactive); in the test with Malme-3M it was 17.2 µM (inactive); with KM12, 16.3 µM (inactive); in the test on OVCAR-3 it was 15.7 µM (inactive); with SN12C, 17.3 µM (inactive); in the test with OVCAR-8 it was 18.2 µM (inactive). The GI50 in the test on LOX IMVI was 16.3 µM (inactive); in the test on SW-620 it was 14.5 µM (inactive); with M14, 18 µM (inactive); in the test on SF-295 it was 15.9 µM (inactive); with HL-60, 2.03 µM (inactive); in the test with BT-549, 14.3 µM (inactive). In addition, the GI50 was 15.8 µM (inactive) in the test on SK-OV-3; 18.1 µM (inactive) with SF-539; 13.8 µM (inactive) in the test with NCI-H522; 14.5 µM (inactive) with ACHN; 17.5 µM (inactive) with COLO 205; 24.9 µM (inactive) in the test on A498. In the test with RXF 393, the GI50 was 16.9 µM (inactive).

With `Cc1ccccc1/N=C/N(C)C`, the GI50 with TK-10 was 54.6 µM (inactive); in the test with Malme-3M it was 43.9 µM (inactive); in the test on HCT-15, more than 100 µM; with OVCAR-3, 17.7 µM (inactive); in the test on SN12C, 66.5 µM (inactive); with OVCAR-8, 33.9 µM (inactive). In addition, the GI50 with LOX IMVI was 23.8 µM (inactive); in the test with M14 it was 99.3 µM (inactive); in the test with SF-295 it was 39.5 µM (inactive); with HL-60, 14.1 µM (inactive); with BT-549, 85.7 µM (inactive); in the test on SK-OV-3, > 100 µM (inactive). Further, the GI50 is 61.8 µM (inactive) in the test with SF-539; 21.2 µM (inactive) in the test on NCI-H522; 41.8 µM (inactive) in the test with ACHN; 39.6 µM (inactive) in the test on COLO 205; 91.6 µM (inactive) in the test with A498; 50.4 µM (inactive) with RXF 393.

Take `CCOC1Oc2ccccc2-c2nc(SC)ncc21` (configuration not stated): the GI50 in the test with TK-10 was 68.4 µM (inactive); in the test with KM12, > 100 µM (inactive); in the test with HCT-15 it was 79.3 µM; with OVCAR-3, > 100 µM (inactive); in the test with SN12C, 89.7 µM (inactive); in the test on OVCAR-8, > 100 µM (inactive). Moreover, the GI50 is 80.7 µM (inactive) in the test with LOX IMVI; > 100 µM (inactive) in the test on SW-620; > 100 µM (inactive) in the test with M14; > 100 µM (inactive) in the test on SF-295; 45.9 µM (inactive) in the test on HL-60; 78 µM (inactive) with BT-549. Besides, the GI50 in the test on SK-OV-3 is > 100 µM (inactive); in the test with SF-539 it was > 100 µM (inactive); with NCI-H522 it was 71.3 µM (inactive); in the test with ACHN, > 100 µM (inactive); in the test with COLO 205, > 100 µM (inactive); in the test on A498 it was 28.9 µM (inactive). The GI50 with RXF 393 was > 100 µM (inactive).

With `CC1OC(OC2C[C@](O)(C(=O)CF)Cc3c(O)c4c(c(O)c32)C(=O)c2ccccc2C4=O)CC(N)C1O` (some centres not stated), the GI50 in the test on TK-10 was 0.1 µM (active); in the test on Malme-3M, < 0.0109 µM (active); in the test on KM12 it was 0.0305 µM (active); with HCT-15 it was 0.0588 µM; with OVCAR-3, 0.233 µM (active); in the test on SN12C, < 0.01 µM (active). The GI50 was 0.0115 µM (active) with OVCAR-8; < 0.01 µM (active) with LOX IMVI; < 0.0116 µM (active) in the test with SW-620; 0.0263 µM (active) in the test on M14; < 0.01 µM (active) with SF-295; < 0.01 µM (active) in the test on HL-60. The GI50 in the test with BT-549 is 0.131 µM (active); in the test with SK-OV-3, 0.0194 µM (active); in the test on SF-539, 0.0561 µM (active); with NCI-H522 it was 0.0202 µM (active); with ACHN, < 0.01 µM (active); with COLO 205, 0.0296 µM (active). Also, the GI50 with A498 was 0.233 µM (active); in the test with RXF 393, 0.0637 µM (active).

As for `N=C(N)N/N=C/c1c(-c2ccc(Cl)cc2)nc2n1CCS2`, the GI50 is 15.7 µM (inactive) in the test with TK-10; 14.6 µM (inactive) with Malme-3M; 10.9 µM (inactive) in the test with KM12; 14.3 µM with HCT-15; 8.18 µM (inactive) with OVCAR-3; 14.3 µM (inactive) in the test with SN12C. For the same molecule, the GI50 was 15.2 µM (inactive) in the test on OVCAR-8; 4.49 µM (inactive) in the test with LOX IMVI; 5.89 µM (inactive) with SW-620; 2.94 µM (inactive) with M14; 3.53 µM (inactive) in the test on SF-295; 31.1 µM (inactive) in the test on HL-60. Moreover, the GI50 was 14.5 µM (inactive) with BT-549; 13.9 µM (inactive) with SK-OV-3; 11.7 µM (inactive) in the test with SF-539; 12.8 µM (inactive) in the test with NCI-H522; 14.1 µM (inactive) in the test on ACHN; 4.38 µM (inactive) in the test with COLO 205. For the same molecule, the GI50 in the test on A498 was 12.7 µM (inactive); with RXF 393, 9.29 µM (inactive).
